#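 Test compounds were applied to cells in 96-well plates for 48 hours at 5 doses. GI50 = concentration required for 50% inhibition of growth.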 Active and inactive are the calls of the source. Cut-off read from the data, not from the text of the source: active = GI50 up to about 1.1 µM and inactive = higher.
# Key:
# Assay in all cases: NCI anticancer screen, dose series, 48 h
# 786-0 = test system: 786-0
# A498 = test system: A498
# A549 = test system: A549
# ACHN = test system: ACHN
# BT-549 = test system: BT-549
# CAKI-1 = test system: CAKI-1
# CCRF-CEM = test system: CCRF-CEM
# COLO 205 = test system: COLO 205
# DU-145 = test system: DU-145
# EKVX = test system: EKVX
# HCC 2998 = test system: HCC 2998
# HCT-116 = test system: HCT-116
# HCT-15 = test system: HCT-15
# HL-60 = test system: HL-60
# HOP-62 = test system: HOP-62
# HOP-92 = test system: HOP-92
# HT-29 = test system: HT-29
# Hs-578T = test system: Hs-578T
# IGROV-1 = test system: IGROV-1
# K562 = test system: K562
# KM12 = test system: KM12
# LOX IMVI = test system: LOX IMVI
# M14 = test system: M14
# MCF7 = test system: MCF7
# MDA-MB-231 = test system: MDA-MB-231
# MDA-MB-435 = test system: MDA-MB-435
# MDA-N = test system: MDA-N
# MOLT-4 = test system: MOLT-4
# Malme-3M = test system: Malme-3M
# NCI-H226 = test system: NCI-H226
# NCI-H23 = test system: NCI-H23
# NCI-H460 = test system: NCI-H460
# NCI-H522 = test system: NCI-H522
# NCI/ADR-RES = test system: NCI/ADR-RES
# OVCAR-3 = test system: OVCAR-3
# OVCAR-4 = test system: OVCAR-4
# OVCAR-5 = test system: OVCAR-5
# OVCAR-8 = test system: OVCAR-8
# PC-3 = test system: PC-3
# RPMI-8226 = test system: RPMI-8226
# RXF 393 = test system: RXF 393
# SF-268 = test system: SF-268
# SF-295 = test system: SF-295
# SF-539 = test system: SF-539
# SK-MEL-28 = test system: SK-MEL-28
# SK-MEL-2 = test system: SK-MEL-2
# SK-MEL-5 = test system: SK-MEL-5
# SK-OV-3 = test system: SK-OV-3
# SN12C = test system: SN12C
# SNB-19 = test system: SNB-19
# SNB-75 = test system: SNB-75
# SR = test system: SR
# SW-620 = test system: SW-620
# T47D = test system: T47D
# TK-10 = test system: TK-10
# U-251 = test system: U-251
# UACC-257 = test system: UACC-257
# UACC-62 = test system: UACC-62
# UO-31 = test system: UO-31
compound,measurement,setting,value
NS(=O)(=O)c1ccc(NC(=O)N/N=C/c2ccccc2O)cc1,GI50,786-0,73.8 µM (inactive)
same,GI50,A498,> 100 µM (inactive)
same,GI50,A549,> 100 µM (inactive)
same,GI50,ACHN,> 100 µM (inactive)
same,GI50,BT-549,43.8 µM (inactive)
same,GI50,CAKI-1,94.4 µM (inactive)
same,GI50,CCRF-CEM,36.1 µM (inactive)
same,GI50,COLO 205,35.5 µM (inactive)
same,GI50,DU-145,> 100 µM (inactive)
same,GI50,EKVX,> 100 µM (inactive)
same,GI50,HCC 2998,40.7 µM (inactive)
same,GI50,HCT-116,48.2 µM (inactive)
same,GI50,HCT-15,48 µM
same,GI50,HL-60,27.2 µM (inactive)
same,GI50,HOP-62,50.7 µM (inactive)
same,GI50,HOP-92,94.4 µM (inactive)
same,GI50,HT-29,45.5 µM (inactive)
same,GI50,Hs-578T,60.5 µM (inactive)
same,GI50,IGROV-1,58.7 µM (inactive)
same,GI50,K562,40.8 µM (inactive)
same,GI50,KM12,33.7 µM (inactive)
same,GI50,LOX IMVI,47.4 µM (inactive)
same,GI50,M14,36.8 µM (inactive)
same,GI50,MCF7,58.2 µM (inactive)
same,GI50,MDA-MB-231,> 100 µM (inactive)
same,GI50,MDA-MB-435,16.4 µM (inactive)
same,GI50,MDA-N,22.1 µM (inactive)
same,GI50,MOLT-4,37.7 µM (inactive)
same,GI50,Malme-3M,74.3 µM (inactive)
same,GI50,NCI-H226,66.1 µM (inactive)
same,GI50,NCI-H23,80.7 µM (inactive)
same,GI50,NCI-H460,67.9 µM (inactive)
same,GI50,NCI-H522,22.4 µM (inactive)
same,GI50,NCI/ADR-RES,68.4 µM (inactive)
same,GI50,OVCAR-3,42 µM (inactive)
same,GI50,OVCAR-4,> 100 µM (inactive)
same,GI50,OVCAR-5,> 100 µM (inactive)
same,GI50,OVCAR-8,45.1 µM (inactive)
same,GI50,PC-3,> 100 µM (inactive)
same,GI50,RPMI-8226,> 100 µM (inactive)
same,GI50,RXF 393,> 100 µM (inactive)
same,GI50,SF-268,49 µM (inactive)
same,GI50,SF-295,67.8 µM (inactive)
same,GI50,SF-539,41.9 µM (inactive)
same,GI50,SK-MEL-28,85.1 µM (inactive)
same,GI50,SK-MEL-2,42 µM (inactive)
same,GI50,SK-MEL-5,46.3 µM (inactive)
same,GI50,SK-OV-3,81.5 µM (inactive)
same,GI50,SN12C,85.3 µM (inactive)
same,GI50,SNB-19,38.6 µM (inactive)
same,GI50,SNB-75,56.9 µM (inactive)
same,GI50,SR,22.2 µM (inactive)
same,GI50,SW-620,74.3 µM (inactive)
same,GI50,T47D,88.7 µM (inactive)
same,GI50,TK-10,> 100 µM (inactive)
same,GI50,U-251,50.1 µM (inactive)
same,GI50,UACC-257,58.6 µM (inactive)
same,GI50,UACC-62,60.4 µM (inactive)
same,GI50,UO-31,60.7 µM (inactive)
CCCCCCCCCCCCCCC(O)C[N+](C)(CCO)CCO (stereo not drawn),GI50,786-0,1.98 µM (inactive)
same,GI50,A498,4.99 µM (inactive)
same,GI50,A549,10.2 µM (inactive)
same,GI50,ACHN,6.01 µM (inactive)
same,GI50,BT-549,3.05 µM (inactive)
same,GI50,CAKI-1,1.32 µM (inactive)
same,GI50,CCRF-CEM,1.57 µM (inactive)
same,GI50,COLO 205,1.72 µM (inactive)
same,GI50,DU-145,11 µM (inactive)
same,GI50,EKVX,17.7 µM (inactive)
same,GI50,HCC 2998,1.73 µM (inactive)
same,GI50,HCT-116,5.79 µM (inactive)
same,GI50,HCT-15,5.96 µM
same,GI50,HL-60,0.585 µM (active)
same,GI50,HOP-62,2.19 µM (inactive)
same,GI50,HOP-92,0.885 µM (active)
same,GI50,HT-29,2.12 µM (inactive)
same,GI50,Hs-578T,2.17 µM (inactive)
same,GI50,IGROV-1,1.15 µM (inactive)
same,GI50,K562,4.24 µM (inactive)
same,GI50,KM12,1.94 µM (inactive)
same,GI50,LOX IMVI,1.48 µM (inactive)
same,GI50,M14,1.59 µM (inactive)
same,GI50,MCF7,12.6 µM (inactive)
same,GI50,MDA-MB-231,1.14 µM (inactive)
same,GI50,MDA-MB-435,6.12 µM (inactive)
same,GI50,MDA-N,5.86 µM (inactive)
same,GI50,MOLT-4,1.91 µM (inactive)
same,GI50,Malme-3M,2.06 µM (inactive)
same,GI50,NCI-H226,2.04 µM (inactive)
same,GI50,NCI-H23,4.49 µM (inactive)
same,GI50,NCI-H460,2.56 µM (inactive)
same,GI50,NCI-H522,1.64 µM (inactive)
same,GI50,NCI/ADR-RES,20.3 µM (inactive)
same,GI50,OVCAR-3,3.13 µM (inactive)
same,GI50,OVCAR-4,3.73 µM (inactive)
same,GI50,OVCAR-5,2.46 µM (inactive)
same,GI50,OVCAR-8,4.11 µM (inactive)
same,GI50,PC-3,1.72 µM (inactive)
same,GI50,RPMI-8226,1.92 µM (inactive)
same,GI50,RXF 393,1.41 µM (inactive)
same,GI50,SF-268,1.89 µM (inactive)
same,GI50,SF-295,2.25 µM (inactive)
same,GI50,SF-539,2.4 µM (inactive)
same,GI50,SK-MEL-28,9.79 µM (inactive)
same,GI50,SK-MEL-2,7.31 µM (inactive)
same,GI50,SK-MEL-5,4.06 µM (inactive)
same,GI50,SK-OV-3,12.9 µM (inactive)
same,GI50,SN12C,4.7 µM (inactive)
same,GI50,SNB-19,1.49 µM (inactive)
same,GI50,SNB-75,0.746 µM (active)
same,GI50,SR,1.92 µM (inactive)
same,GI50,SW-620,6.22 µM (inactive)
same,GI50,T47D,8.07 µM (inactive)
same,GI50,TK-10,1.39 µM (inactive)
same,GI50,U-251,1.53 µM (inactive)
same,GI50,UACC-257,11.1 µM (inactive)
same,GI50,UACC-62,2.47 µM (inactive)
same,GI50,UO-31,4.27 µM (inactive)

# Reference: ChEMBL document CHEMBL1201862, “PubChem BioAssay data set” (2004)
